From patent US10030016B2 (Sunesis Pharmaceuticals, Inc., priority 2009, dated 2018)
Structures can show the parent of a compound that is named as a salt. Where two headings read alike, the source gives them in different places.

Assays:
[1] = system: phospho-akt (Thr308) in PC-3 cells; assay: Inhibition of phospho-akt (Thr308) in PC-3 cells, MSD phospho-akt 308 ELISA kit; format: cell-based; settings: Homo sapiens, 2 hours, no serum, read-out: EC50
How it was run: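 Read-out is MSD electrochemiluminescence of Akt phosphorylated at Thr308 in lysates of PC-3 cells treated 2 h with compound in serum-free medium. Wortmannin at 5 μM defined the low control and DMSO the high control.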

[2] = target: PDK1 (Homo sapiens (Human), UniProt O15530); assay: PDK1 kinase assay (coupled PDK1/AKT/FAM-crosstide assay, IMAP fluorescence polarization); format: biochemical
Sequence of PDK1 (O15530 51-359): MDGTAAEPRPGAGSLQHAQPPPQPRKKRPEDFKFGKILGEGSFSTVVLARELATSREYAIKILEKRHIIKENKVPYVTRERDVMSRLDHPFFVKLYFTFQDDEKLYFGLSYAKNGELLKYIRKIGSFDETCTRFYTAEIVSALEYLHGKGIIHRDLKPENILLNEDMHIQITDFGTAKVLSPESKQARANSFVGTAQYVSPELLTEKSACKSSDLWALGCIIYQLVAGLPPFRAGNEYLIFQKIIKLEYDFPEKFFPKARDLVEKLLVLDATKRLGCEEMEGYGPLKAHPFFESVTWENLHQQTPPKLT
How it was run: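 Coupled cascade: 0.75 nM PDK1 (51-359) → 10 nM AKT2 (140-467-PIFtide) → 100 nM FAM-crosstide. ATP 40 μM, 25° C, 30 min. IMAP FP (ex 485/em 530), 2 h binding. ΔmP vs conc, 4-param fit.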

[3] = inhibition of P308 Akt in PC-3 cells using MSD
[4] = inhibition of P308 Akt in PC-3 cells, MSD
[5] = inhibition of phospo-PDK1 in vitro

SMILES	EC50 [1, 3]	IC50 ([2]; inhibition of PDK1 in vitro)	EC50 [1, 4]	IC50 [2, 5]	EC50 ([1]; PC-3, 2 h, inhibition of P308 Akt in PC-3 cells, MSD)
Nc1ncnn2c(-c3ccc(CNc4ncc(C(F)(F)F)cc4C(=O)Nc4ccc(F)cc4)cc3)ccc12 [Example 180, 2-[4-(4-Amino-pyrrolo [2,1-f][1,2,4]triazin-7-yl)-benzylamino]-N-(4-fluoro-phenyl)-5-trifluoromethyl-nicotinamide]	1000 to 10000 nM	< 100 nM			
Nc1ncc(-c2ccc(CNc3ncc(C(F)(F)F)cc3C(=O)Nc3ccc(F)cc3)cc2)nc1N1CCC[C@@H](N)C1 [Example 189, 2-{4-[5-Amino-6-((R)-3-amino-piperidin-1-yl)-pyrazin-2-yl]-benzylamino}-N-(4-fluoro-phenyl)-5-trifluoromethyl-nicotinamide]	1000 to 10000 nM	< 100 nM			
O=C1Nc2cc(OCCNc3ncccc3C(=O)NCc3ccc(F)c(F)c3)ccc2/C1=C/c1cnc[nH]1 [Example 22, (Z)-2-(2-(3-((1H-imidazol-5-yl)methylene)-2-oxoindolin-6-yloxy)ethylamino)-N-(3,4-difluorobenzyl)nicotinamide]			< 1000 nM	< 100 nM	
CC(C)Oc1cc(CNc2ncccc2C(=O)NCC(F)(F)F)cc(-c2c[nH]c3ncc(C(=O)NC4CC4)cc23)c1 [Example 4.1.5, N-cyclopropyl-3-{3-(propan-2-yloxy)-5-[({3-[(2,2,2-trifluoroethyl)carbamoyl]pyridin-2-yl}amino)methyl]phenyl}-1H-pyrrolo[2,3-b] pyridine-5-carboxamide]			> 10000 nM	> 5000 nM	
CC(C)NS(=O)(=O)c1cnc(NCc2ccc(-c3ccc4ncnc(N)c4c3)s2)c(C(=O)NCc2ccc(F)c(F)c2)c1 [Example 8.7.9, 2-({[5-(4-aminoquinazolin-6-yl)thiophen-2-yl]methyl}amino)-N-(3,4-difluorobenzyl)-5-(propan-2-ylsulfamoyl) pyridine-3-carboxamide]				100 to 1000 nM	1000 to 10000 nM
C[C@H](NC(=O)c1cc(I)cnc1NCc1ccc(-c2ccc3ncnc(N)c3c2)s1)c1ccc(F)c(F)c1 [Ex. 7.21.1, 2-({[5-(4-aminoquinazolin-6-yl)thiophen-2-yl]methyl}amino)-N-[(1S)-1-(3,4-difluorophenyl)ethyl]-5-iodopyridine-3-carboxamide]			< 1000 nM	100 to 1000 nM	
C[C@@H](NC(=O)c1nc(C#N)cnc1NCc1ccc(-c2cnc3[nH]nc(N)c3c2)cc1)c1ccc(F)c(F)c1 [Example 417, (R)-3-(4-(3-amino-1H-pyrazolo[3,4-b]pyridin-5-yl)benzylamino)-6-cyano-N-(1-(3,4-difluorophenyl)ethyl) pyrazine-2-carboxamide]	1000 to 10000 nM	100 to 1000 nM			
N#Cc1ccc(NCc2ccc(-c3ccc4ncnc(N)c4c3)s2)c(C(=O)NCc2ccc(F)c(F)c2)c1 [Example 247, 2-(((5-(4-aminoquinazolin-6-yl)thiophen-2-yl)methyl)amino)-5-cyano-N-(3,4-difluorobenzyl)benzamide]	> 10000 nM	< 100 nM			
C[C@H](NC(=O)c1cc(C(F)(F)F)cnc1NCc1ccc(-c2cnc(N)cn2)cc1)c1ccc(F)cc1 [Example 379, (S)-2-(4-(5-aminopyrazin-2-yl)benzylamino)-N-(1-(4-fluorophenyl)ethyl)-5-(trifluoromethyl)nicotinamide]	< 1000 nM	< 100 nM			
CN(C(=O)c1cc(C(F)(F)F)cnc1NCc1ccc(-c2cnc3[nH]nc(N)c3c2)cc1)c1ccc(F)cc1 [Example 290, 2-(4-(3-amino-1H-pyrazolo [3,4-b]pyridin-5-yl)benzylamino)-N-(4-fluorophenyl)-N-methyl-5-(trifluoromethyl) nicotinamide]	1000 to 10000 nM	> 5000 nM			
C[C@H](NC(=O)c1cc(C#N)cnc1NCc1ccc(-c2ccc3ncnc(N)c3c2)s1)c1ccc(F)cc1 [Example 8.8.3, 2-({[5-(4-aminoquinazolin-6-yl)thiophen-2-yl]methyl}amino)-5-cyano-N-[(1S)-1-(4-fluorophenyl)ethyl] pyridine-3-carboxamide]			< 1000 nM	< 100 nM	
C[C@H](NC(=O)c1cc(C(F)(F)F)cnc1NCc1ccc(-c2cnc3[nH]ncc3c2)cc1)c1ccc(F)cc1 [Example 246, N-[(S)-1-(4-Fluoro-phenyl)-ethyl]-2-[4-(1H-pyrazolo[3,4-b]pyridin-5-yl)-benzylamino]-5-trifluoromethyl-nicotinamide]	< 1000 nM	< 100 nM			
C[C@H](NC(=O)c1nc(C#N)cnc1NCc1ccc(-c2cnc(N)c(CCC(C)(C)N)n2)cc1)c1ccc(F)c(F)c1 [Example 84, 3-{4-[5-Amino-6-(3-amino-3-methyl-butyl)-pyrazin-2-yl]-benzylamino}-6-cyano-pyrazine-2-carboxylic acid [(S)-1-(3,4-difluoro-phenyl)-ethyl]-amide]	< 1000 nM	< 100 nM			
Nc1ncc(-c2ccc(CNc3ncc(C(F)(F)F)cc3C(=O)Nc3ccc(F)cc3)cc2)nc1O[C@@H]1CCNC1 [Example 159, 2-{4-[5-Amino-6-((R)-pyrrolidin-3-yloxy)-pyrazin-2-yl]-benzylamino}-N-(4-fluoro-phenyl)-5-trifluoromethyl-nicotinamide]	< 1000 nM	< 100 nM			
C[C@H](NC(=O)c1cc(C#N)cnc1NCc1ccc(-c2cnc(N)c(O[C@@H]3CCC[C@H]3N)n2)cc1)c1ccc(F)cc1 [Example 171, 2-{4-[5-Amino-6-((1R,2R)-2-amino-cyclopentyloxy)-pyrazin-2-yl]-benzylamino}-5-cyano-N-[(S)-1-(4-fluoro-phenyl)-ethyl]-nicotinamide]	1000 to 10000 nM	< 100 nM			
Nc1cnc(-c2ccc(CNc3ncc(C(F)(F)F)cc3C(=O)NCc3ccc(F)c(F)c3)cn2)cn1 [Example 326]	> 10000 nM	100 to 1000 nM			
C[C@H](NC(=O)c1cc(C#N)cnc1NCc1ccc(-c2ccc3c(N)ncnn23)cc1)c1ccc(F)cc1 [Example 178, 2-[4-(4-Amino-pyrrolo [2,1-f][1,2,4]triazin-7-yl)-benzylamino]-5-cyano-N-[(S)-1-(4-fluoro-phenyl)-ethyl]-nicotinamide]	1000 to 10000 nM	< 100 nM			
CC(C)Oc1cc(CNc2ncccc2C(=O)Nc2c(F)cccc2F)cc(-c2c[nH]c3ncc(C(=O)NC4CC4)cc23)c1 [Example 4.1.12, N-cyclopropyl-3-{3-[({3-[(2,6-difluorophenyl)carbamoyl]pyridin-2-yl}amino)methyl]-5-(propan-2-yloxy)phenyl}-1H-pyrrolo[2,3-b] pyridine-5-carboxamide]			> 10000 nM	1000 to 5000 nM	
CCCn1cc(-c2ccc(CNc3ncc(C(F)(F)F)cc3C(=O)Nc3ccc(F)cc3)cc2)c2c(N)ncnc21 [Example 429, 2-(4-(4-amino-7-propyl-7H-pyrrolo[2,3-d]pyrimidin-5-yl)benzylamino)-N-(4-fluorophenyl)-5-(trifluoromethyl)nicotinamide]	1000 to 10000 nM	< 100 nM			

More lines, now with the values ahead:

EC50 [1, 3]	IC50 ([2]; inhibition of PDK1 in vitro)	EC50 [1, 4]	IC50 [2, 5]	EC50 ([1]; PC-3, 2 h, inhibition of P308 Akt in PC-3 cells, MSD)	SMILES
		1000 to 10000 nM	100 to 1000 nM		C[C@H](NC(=O)c1cccnc1NCc1ccc(-c2ccc3ncnc(NCCN)c3c2)s1)c1ccc(F)cc1 [Example 2.15, (S)-2-(((5-(4-(2-aminoethylamino)quinazolin-6-yl)thiophen-2-yl)methyl)amino)-N-(1-(4-fluorophenyl)ethyl)nicotinamide]
		> 10000 nM	100 to 1000 nM		CC[C@H](NC(=O)c1cccnc1NCc1ccc(-c2ccc3ncnc(N)c3c2)s1)c1cccc(F)c1 [Example 3.42, (S)-2-((5-(4-aminoquinazolin-6-yl)thiophen-2-yl)methylamino)-N-(1-(3-fluorophenyl)propyl) nicotinamide (TFA salt)]
		1000 to 10000 nM	< 100 nM		O=C(NCc1ccc(F)c(F)c1)c1cccnc1NCCOc1ccc2[nH]c(=O)[nH]c2c1 [Example 16.2, N-(3,4-difluorobenzyl)-2-(2-(2-oxo-2,3-dihydro-1H-benzo[d]imidazol-5-yloxy)-ethylamino)nicotinamide]
		1000 to 10000 nM	100 to 1000 nM		C[C@H](NC(=O)c1cccnc1NCc1ccc(-c2ccc3ncnc(N)c3c2)s1)c1ccc(F)cn1 [Example 3.66, 2-({[5-(4-aminoquinazolin-6-yl)thiophen-2-yl]methyl}amino)-N-[(1S)-1-(5-fluoropyridin-2-yl)ethyl] pyridine-3-carboxamide (TFA salt)]
		1000 to 10000 nM	100 to 1000 nM		Nc1ncnc2ccc(-c3cnc(CNc4ncccc4C(=O)NCc4ccc(F)c(F)c4)s3)cc12 [Ex. 7.1]
		1000 to 10000 nM	< 100 nM		C[C@H](NC(=O)c1cccnc1NCc1ccc(-c2ccc3ncnc(NC4CNC4)c3c2)s1)c1ccc(F)c(F)c1 [Example 4.36, 2-({5-[4-(Azetidin-3-ylamino)-quinazolin-6-yl]-thiophen-2-ylmethyl}-amino)-N-[(S)-1-(3,4-difluoro-phenyl)-ethyl]-nicotinamide]
		1000 to 10000 nM	< 100 nM		C[C@H](NC(=O)c1nccnc1NCc1ccc(-c2ccc3ncnc(N)c3c2)s1)c1ccc(F)cc1 [Example 3.70, 3-({[5-(4-aminoquinazolin-6-yl)thiophen-2-yl]methyl}amino)-N-[(1S)-1-(4-fluorophenyl)ethyl] pyrazine-2-carboxamide (TFA salt)]
		< 1000 nM	< 100 nM		C[C@H](NC(=O)c1cccnc1NCc1ccc(-c2ccc3ncnc(N)c3c2)s1)c1cc(F)c(F)c(F)c1 [Example 3.63, (S)-2-(((5-(4-aminoquinazolin-6-yl)thiophen-2-yl)methyl)amino)-N-(1-(3,4,5-trifluorophenyl)ethyl) nicotinamide (TFA salt)]
